Columns and labels:
[1] = system: ANKA strain of P. berghei; test: Single dose in vivo screen in P. berghei-infected NMRI mice; conditions: for Survival (days) 30 mg/kg SSV po / Activity (%) 30 mg/kg SSV po: single 30 mg/kg po dose in SSV one day post-infection; for Activity (%) 30 mg/kg SSV po: percent reduction in parasitemia on day three post-infection; for Cures 30 mg/kg SSV po: single 30 mg/kg po dose in SSV, cure = survival to day 30 post-infection, groups of five mice
Experimental: Activity of 1,2,4-trioxolanes against P. berghei in vivo. In the single dose in vivo screen, NMRI mice infected with the ANKA strain of P. berghei (groups of five mice) were treated one day post-infection with trioxolanes dissolved or suspended in standard suspending vehicle (SSV). The SSV consists of either 0.5% w/v carboxymethyl cellulose, 0.5% v/v benzyl alcohol, 0.4% v/v Tween 80, and 0.9% w/v sodium chloride in water or 0.5% hydroxypropylmethylcellulose 0.4% v/s Tween 80, and 0.5% v/v benzyl alcohol in water. […] Antimalarial activity was measured by percent reduction in parasitemia on day three post-infection and survival times compared to an untreated control group. Survival to day 30 post-infection is considered to be a cure in this model.

P. berghei = test: Prophylactic activity against P. berghei in vivo (mice dosed before infection); conditions: for Cures 24 h prior to infection (30 mg/kg) / Activity (%) 24 h prior to infection (30 mg/kg): single 30 mg/kg oral dose 24 h prior to infection; for Cures 24 h prior to infection (30 mg/kg) / Cures 48 h prior to infection (100 mg/kg) / Cures 72 h prior to infection (100 mg/kg) / Cures 96 h prior to infection (100 mg/kg): n=5 mice; for Activity (%) 24 h prior to infection (30 mg/kg) / Activity (%) 48 h prior to infection (100 mg/kg): parasitemia day 3 post-infection; for Cures 48 h prior to infection (100 mg/kg) / Activity (%) 48 h prior to infection (100 mg/kg): single 100 mg/kg oral dose 48 h prior to infection; for Activity (%) 72 h prior to infection (100 mg/kg) / Cures 72 h prior to infection (100 mg/kg): single 100 mg/kg oral dose 72 h prior to infection; for Activity (%) 96 h prior to infection (100 mg/kg) / Cures 96 h prior to infection (100 mg/kg): single 100 mg/kg oral dose 96 h prior to infection
Experimental: All groups (n=5 mice per group) including an untreated control group, were infected at the same time and parasitemia was determined for each animal on day 3 post-infection and compared with the level of parasitemia in control animals.

[2] = Blood stability studies in freshly collected rat blood; assay type: in vitro ADME; parameters: unit not given here
Experimental: Blood stability studies: Compounds were incubated at 37° C. in freshly collected rat blood. At selected time points, duplicate aliquots of the whole blood were sampled, centrifuged and the plasma assayed for parent compound by LC-MS.

[3] = Pharmacokinetic studies in rats (oral); assay type: in vivo, rat; conditions: oral 10 mg/kg; for Oral Bioavailability at 10 mg/kg (%): relative to an IV dose
Experimental: Pharmacokinetic studies in rats: Compounds were administered orally to rats (n=2) at a dose of 10 mg/kg in a suspension formulation containing hydroxypropylmethyl cellulose, Tween 80, benzyl alcohol, and water. […] Oral bioavailability for each compound was calculated relative to an IV dose for each compound in a suitable vehicle.

Row | Compound | Survival (days) 30 mg/kg SSV po [1] [days] | Activity (%) 30 mg/kg SSV po [1] [%] | Cures 30 mg/kg SSV po [1] | Cures 24 h prior to infection (30 mg/kg) (P. berghei) | Activity (%) 24 h prior to infection (30 mg/kg) (P. berghei) [%] | Cures 48 h prior to infection (100 mg/kg) (P. berghei) | Activity (%) 48 h prior to infection (100 mg/kg) (P. berghei) [%] | Stability in Rat Blood (t1/2) at 37° C. [2] | In Vivo Oral t1/2 at 10 mg/kg [3] [h] | Oral Bioavailability at 10 mg/kg (%) [3] [%] | Activity (%) 72 h prior to infection (100 mg/kg) (P. berghei) [%] | Cures 72 h prior to infection (100 mg/kg) (P. berghei) | Activity (%) 96 h prior to infection (100 mg/kg) (P. berghei) [%] | Cures 96 h prior to infection (100 mg/kg) (P. berghei) | In Vivo Oral t1/2 at 10 mg/kg ([3]; 10 mg/kg) [h] | Oral Bioavailability at 10 mg/kg (%) ([3]; 10 mg/kg) | Malaria-curative with a single dose ([1]; single dose, dose not stated)
1 | C[C@H]1[C@H](OC(=O)CCC(=O)O)O[C@@H]2O[C@@]3(C)CC[C@H]4[C@H](C)CC[C@@H]1[C@@]24OO3 [AS, artesunate, reference compound] | 9.0 | 92 | 0/5 | 0/5 | 21 | 0/5 | 0 | – | – | – | – | – | – | – | – | – | –
2 | NC[C@H]1CC[C@]2(CC1)OOC1(O2)C2CC3CC(C2)CC1C3 (stereo partly shown) [OZ209, reference compound] | – | – | – | – | – | – | – | 0.8 | 1.2 | 12 | – | – | – | – | – | – | –
3 | NCCOc1ccc([C@H]2CC[C@]3(CC2)OO[C@]2(O3)C3CC4CC(C3)CC2C4)cc1 [OZ323, reference compound] | – | – | – | 0/5 | 99.7 | 5/5 | 99.5 | 7.7 | 5.2 | 100 | >99.9 | 1/5 | 90 | 0/5 | – | – | –
4 | CS(=O)(=O)O.c1cc([C@H]2CC[C@]3(CC2)OOC2(O3)C3CC4CC(C3)CC2C4)ccc1OC1CCNCC1 (stereo partly shown) [OZ429] | 27.8 | 99.97 | 4/5 | 2/5 | 99.8 | 5/5 | 99.8 | 5.5 | 5.3 | 73 | – | – | – | – | – | – | –
5 | CC(C)(CN)Oc1ccc(C2CCC3(CC2)OOC2(O3)C3CC4CC(C3)CC2C4)cc1.CS(=O)(=O)O (stereo not shown) [OZ453] | – | – | – | 0/5 | 99.9 | 5/5 | 99.7 | 6.1 | – | – | – | – | – | – | – | – | –
6 | CS(=O)(=O)O.c1cc(C2CCC3(CC2)OOC2(O3)C3CC4CC(C3)CC2C4)ccc1OCCN1CCSCC1 (stereo not shown) [OZ460] | 25.0 | 99 | 3/5 | 3/5 | 99.8 | 5/5 | 99.6 | – | – | – | – | – | – | – | – | – | –
7 | CS(=O)(=O)O.c1cc([C@H]2CC[C@]3(CC2)OOC2(O3)C3CC4CC(C3)CC2C4)ccc1OCCCN1CCOCC1 (stereo partly shown) [OZ461] | – | – | – | 5/5 | 99.9 | 5/5 | 99.7 | – | – | 71 | 99.6 | 5/5 | 99.4 | 4/5 | – | – | –
8 | CS(=O)(=O)N1CCN(CCCOc2ccc([C@H]3CC[C@]4(CC3)OOC3(O4)C4CC5CC(C4)CC3C5)cc2)CC1.Cc1ccc(S(=O)(=O)O)cc1 (stereo partly shown) [OZ482] | – | – | – | 3/5 | >99.9 | 5/5 | >99.9 | >17 | 9.6 | 100 | 99.6 | 4/5 | 99.6 | 3/5 | – | – | –
9 | CS(=O)(=O)N1CCN(CCOc2ccc([C@H]3CC[C@]4(CC3)OOC3(O4)C4CC5CC(C4)CC3C5)cc2)CC1.CS(=O)(=O)O (stereo partly shown) [OZ485] | – | – | – | 3/5 | >99.9 | 5/5 | >99.9 | – | – | – | – | – | – | – | – | – | –
10 | O=C1CCC([C@H]2CC[C@]3(CC2)OOC2(O3)C3CC4CC(C3)CC2C4)CC1 (stereo partly shown) [OZ495] | 26.8 | 99.3 | 3/5 | 1/5 | >99.9 | 0/5 | >99.9 | – | – | – | – | – | – | – | – | – | –
11 | CS(=O)(=O)O.NCCCCCOc1ccc(C2CCC3(CC2)OOC2(O3)C3CC4CC(C3)CC2C4)cc1 (stereo not shown) [OZ498] | – | – | – | 4/5 | 99.8 | 5/5 | 99.8 | – | – | – | – | – | – | – | – | – | –
12 | CC(C)(O)CNCCCOc1ccc([C@H]2CC[C@]3(CC2)OOC2(O3)C3CC4CC(C3)CC2C4)cc1.Cc1ccc(S(=O)(=O)O)cc1 (stereo partly shown) [OZ505] | – | – | – | 2/5 | >99.9 | 5/5 | 99.5 | – | – | – | – | – | – | – | – | – | –
13 | O[C@H]1CC[C@@H](C2CCC3(CC2)OOC2(O3)C3CC4CC(C3)CC2C4)CC1 (stereo partly shown) [OZ508] | 24.4 | 99.8 | 3/5 | 4/5 | 99.7 | 4/5 | 99.8 | – | – | – | – | – | – | – | – | – | –
14 | OC1CCN(CCOc2ccc([C@H]3CC[C@]4(CC3)OOC3(O4)C4CC5CC(C4)CC3C5)cc2)CC1 (stereo partly shown) [OZ513] | – | – | – | 1/5 | 99.9 | 5/5 | 99.7 | – | – | – | – | – | – | – | – | – | –
15 | Cc1ccc(S(=O)(=O)O)cc1.O[C@H]1CC[C@H](NCCCOc2ccc([C@H]3CC[C@]4(CC3)OOC3(O4)C4CC5CC(C4)CC3C5)cc2)CC1 (stereo partly shown) [OZ535] | – | – | – | 0/5 | >99.9 | 5/5 | >99.9 | – | – | – | – | – | – | – | – | – | –
16 | CS(=O)(=O)O.NC1CCC(Oc2ccc(C3CCC4(CC3)OOC3(O4)C4CC5CC(C4)CC3C5)cc2)CC1 (stereo not shown) [OZ537] | – | – | – | 5/5 | >99.9 | 5/5 | >99.9 | >17 | – | – | – | – | – | – | 11.8 | 29 | –
17 | CC(C)(N)CCOc1ccc(C2CCC3(CC2)OOC2(O3)C3CC4CC(C3)CC2C4)cc1.Cc1ccc(S(=O)(=O)O)cc1 (stereo not shown) [OZ539] | 25.2 | 99.7 | 3/5 | 4/5 | >99.9 | 5/5 | >99.9 | – | – | – | – | – | – | – | – | – | malaria-curative in some instances with a single dose

Source: patent US8067620B2, “Dispiro 1,2,4-trioxolane antimalarials” (Medicines for Malaria Venture MMV, priority 2005, dated 2011)
